What was measured:
Assay in all cases: cells
RPMI-8866 = type: functional, cell-based, Homo sapiens; details: Homo sapiens, RPMI-8866
Description: SANGER: Inhibition of human RPMI-8866 cell growth in a cell viability assay.

DOHH-2 = type: functional, cell-based, Homo sapiens; details: Homo sapiens, DOHH-2;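 also: growth inhibition of human DOHH-2 cells, read out with a cell viability assay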
Description: SANGER: Inhibition of human DOHH-2 cell growth in a cell viability assay.

BB49-HNC = type: functional, cell-based, Homo sapiens; details: Homo sapiens, BB49-HNC;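 also: cell viability assay read-out, reported as inhibition of BB49-HNC cell growth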
Description: SANGER: Inhibition of human BB49-HNC cell growth in a cell viability assay.

KE-37 = type: functional, cell-based, Homo sapiens; details: Homo sapiens, KE-37;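 also: growth inhibition of KE-37 cells, read out with a cell viability assay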
Description: SANGER: Inhibition of human KE-37 cell growth in a cell viability assay.

COLO-668 = type: functional, cell-based, Homo sapiens; details: Homo sapiens, COLO-668
Description: SANGER: Inhibition of human COLO-668 cell growth in a cell viability assay.

SK-MEL-1 = type: functional, cell-based, Homo sapiens; details: Homo sapiens, SK-MEL-1;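 also: growth inhibition of human SK-MEL-1 cells, read out by a cell viability assay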
Description: SANGER: Inhibition of human SK-MEL-1 cell growth in a cell viability assay.

RH-1 = type: functional, cell-based, Homo sapiens; details: Homo sapiens, RH-1;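 also: growth inhibition of human RH-1 cells, read out with a cell viability assay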
Description: SANGER: Inhibition of human RH-1 cell growth in a cell viability assay.

NCI-H1395 = type: functional, cell-based, Homo sapiens; details: Homo sapiens, NCI-H1395;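 also: cell viability assay read-out quantifying reduced proliferation of human NCI-H1395 cells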
Description: SANGER: Inhibition of human NCI-H1395 cell growth in a cell viability assay.

ML-2 = type: functional, cell-based, Homo sapiens; details: Homo sapiens, ML-2;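 also: growth inhibition of ML-2 cells, measured with a cell viability readout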
Description: SANGER: Inhibition of human ML-2 cell growth in a cell viability assay.

ES1 = type: functional, cell-based, Homo sapiens; details: Homo sapiens, ES1;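 also: growth inhibition of ES1 cells, read out with a cell viability assay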
Description: SANGER: Inhibition of human ES1 cell growth in a cell viability assay.

JVM-2 = type: functional, cell-based, Homo sapiens; details: Homo sapiens, JVM-2;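 also: growth inhibition of JVM-2 cells determined by a cell viability assay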
Description: SANGER: Inhibition of human JVM-2 cell growth in a cell viability assay.

HH = type: functional, cell-based, Homo sapiens; details: Homo sapiens, HH
Description: SANGER: Inhibition of human HH cell growth in a cell viability assay.

D-247MG = type: functional, cell-based, Homo sapiens; details: Homo sapiens, D-247MG
Description: SANGER: Inhibition of human D-247MG cell growth in a cell viability assay.

DB = type: functional, cell-based, Homo sapiens; details: Homo sapiens, DB
Description: SANGER: Inhibition of human DB cell growth in a cell viability assay.

NCI-H1355 = type: functional, cell-based, Homo sapiens; details: Homo sapiens, NCI-H1355;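 also: growth inhibition of human NCI-H1355 cells, read out by a cell viability assay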
Description: SANGER: Inhibition of human NCI-H1355 cell growth in a cell viability assay.

KALS-1 = type: functional, cell-based, Homo sapiens; details: Homo sapiens, KALS-1;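 also: growth inhibition of KALS-1 cells, determined with a cell viability assay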
Description: SANGER: Inhibition of human KALS-1 cell growth in a cell viability assay.

NOMO-1 = type: functional, cell-based, Homo sapiens; details: Homo sapiens, NOMO-1;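 also: growth inhibition of human NOMO-1 cells measured by a cell viability assay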
Description: SANGER: Inhibition of human NOMO-1 cell growth in a cell viability assay.

COLO-829 = type: functional, cell-based, Homo sapiens; details: Homo sapiens, COLO-829
Description: SANGER: Inhibition of human COLO-829 cell growth in a cell viability assay.

OCUB-M = type: functional, cell-based, Homo sapiens; details: Homo sapiens, OCUB-M;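 also: growth inhibition of the cancer cell line, read out through a cell viability assay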
Description: SANGER: Inhibition of human OCUB-M cell growth in a cell viability assay.

TE-12 = type: functional, cell-based, Homo sapiens; details: Homo sapiens, TE-12;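 also: growth inhibition of TE-12 cells, read out by a cell viability assay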
Description: SANGER: Inhibition of human TE-12 cell growth in a cell viability assay.

J-RT3-T3-5 = type: functional, cell-based, Homo sapiens; details: Homo sapiens, J-RT3-T3-5;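 also: cell viability assay measuring growth inhibition of human J-RT3-T3-5 cells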
Description: SANGER: Inhibition of human J-RT3-T3-5 cell growth in a cell viability assay.

COR-L88 = type: functional, cell-based, Homo sapiens; details: Homo sapiens, COR-L88;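 also: growth inhibition of COR-L88 cells, read out with a cell viability assay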
Description: SANGER: Inhibition of human COR-L88 cell growth in a cell viability assay.

HuTu80 = type: functional, cell-based, Homo sapiens, HUTU-80; details: Homo sapiens, HuTu80;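 also: growth inhibition of HuTu80 human cells, determined with a cell viability readout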
Description: SANGER: Inhibition of human HUTU-80 cell growth in a cell viability assay.

COLO-684 = type: functional, cell-based, Homo sapiens; details: Homo sapiens, COLO-684
Description: SANGER: Inhibition of human COLO-684 cell growth in a cell viability assay.

KNS-42 = type: functional, cell-based, Homo sapiens; details: Homo sapiens, KNS-42;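 also: growth inhibition of KNS-42 cells, read out with a cell viability assay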
Description: SANGER: Inhibition of human KNS-42 cell growth in a cell viability assay.

CGTH-W-1 = type: functional, cell-based, Homo sapiens; details: Homo sapiens, CGTH-W-1;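 also: growth inhibition of human CGTH-W-1 cells measured by cell viability assay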
Description: SANGER: Inhibition of human CGTH-W-1 cell growth in a cell viability assay.

KURAMOCHI = type: functional, cell-based, Homo sapiens; details: Homo sapiens, KURAMOCHI;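 also: growth inhibition of KURAMOCHI cells, read out with a cell viability assay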
Description: SANGER: Inhibition of human KURAMOCHI cell growth in a cell viability assay.

K562 = type: functional, cell-based, Homo sapiens; details: Homo sapiens, K562
Description: SANGER: Inhibition of human K-562 cell growth in a cell viability assay.

EW-24 = type: functional, cell-based, Homo sapiens; details: Homo sapiens, EW-24;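 also: human EW-24 cancer cell line, growth inhibition read out via a cell viability assay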
Description: SANGER: Inhibition of human EW-24 cell growth in a cell viability assay.

SW 954 = type: functional, cell-based, Homo sapiens; details: Homo sapiens, SW 954;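 also: growth inhibition of SW954 human cancer cells, read out as cell viability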
Description: SANGER: Inhibition of human SW954 cell growth in a cell viability assay.

ONS-76 = type: functional, cell-based, Homo sapiens; details: Homo sapiens, ONS-76;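 also: growth inhibition of human ONS-76 cells, read out with a cell viability assay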
Description: SANGER: Inhibition of human ONS-76 cell growth in a cell viability assay.

AM-38 = type: functional, cell-based, Homo sapiens; details: Homo sapiens, AM-38;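 also: growth inhibition of AM-38 cells of human origin, read out by a cell viability assay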
Description: SANGER: Inhibition of human AM-38 cell growth in a cell viability assay.

RPMI-8226 = type: functional, cell-based, Homo sapiens; details: Homo sapiens, RPMI-8226
Description: SANGER: Inhibition of human RPMI-8226 cell growth in a cell viability assay.

TE-10 = type: functional, cell-based, Homo sapiens; details: Homo sapiens, TE-10;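 also: growth inhibition of TE-10 cells, measured by a cell viability assay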
Description: SANGER: Inhibition of human TE-10 cell growth in a cell viability assay.

NB5 = type: functional, cell-based, Homo sapiens; details: Homo sapiens, NB5;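 also: growth inhibition of NB5 cells, read out as cell viability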
Description: SANGER: Inhibition of human NB5 cell growth in a cell viability assay.

SK-UT-1 = type: functional, cell-based, Homo sapiens; details: Homo sapiens, SK-UT-1;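 also: growth inhibition of SK-UT-1 cells, measured by a cell viability assay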
Description: SANGER: Inhibition of human SK-UT-1 cell growth in a cell viability assay.

C2BBe1 = type: functional, cell-based, Homo sapiens; details: Homo sapiens, C2BBe1;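 also: growth inhibition of C2BBe1 cells, read out through a viability assay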
Description: SANGER: Inhibition of human C2BBe1 cell growth in a cell viability assay.

GI-ME-N = type: functional, cell-based, Homo sapiens; details: Homo sapiens, GI-ME-N;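 also: growth inhibition of human GI-ME-N cells, read out with a cell viability assay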
Description: SANGER: Inhibition of human GI-ME-N cell growth in a cell viability assay.

A101D = type: functional, cell-based, Homo sapiens; details: Homo sapiens, A101D;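 also: growth inhibition of the cell line, measured with a viability assay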
Description: SANGER: Inhibition of human A101D cell growth in a cell viability assay.

NCI-H23 = type: functional, cell-based, Homo sapiens; details: Homo sapiens, NCI-H23;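 also: cell viability assay measuring growth inhibition of NCI-H23 cells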
Description: SANGER: Inhibition of human NCI-H23 cell growth in a cell viability assay.

EM-2 = type: functional, cell-based, Homo sapiens; details: Homo sapiens, EM-2;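 also: growth inhibition of EM-2 cells, read out with a cell viability assay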
Description: SANGER: Inhibition of human EM-2 cell growth in a cell viability assay.

LS-123 = type: functional, cell-based, Homo sapiens; details: Homo sapiens, LS-123
Description: SANGER: Inhibition of human LS-123 cell growth in a cell viability assay.

NB17 = type: functional, cell-based, Homo sapiens; details: Homo sapiens, NB17;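 also: growth inhibition of NB17 cells, read out with a cell viability assay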
Description: SANGER: Inhibition of human NB17 cell growth in a cell viability assay.

TE-9 = type: functional, cell-based, Homo sapiens; details: Homo sapiens, TE-9;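 also: cell growth inhibition, measured with a cell viability readout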
Description: SANGER: Inhibition of human TE-9 cell growth in a cell viability assay.

MV4-11 = type: functional, cell-based, Homo sapiens, MV-4-11; details: Homo sapiens, MV4-11;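 also: cell viability readout measuring growth inhibition of human MV-4-11 cells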
Description: SANGER: Inhibition of human MV-4-11 cell growth in a cell viability assay.

SW684 = type: functional, cell-based, Homo sapiens; details: Homo sapiens, SW684;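 also: growth inhibition of human SW684 cells, measured by a cell viability assay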
Description: SANGER: Inhibition of human SW684 cell growth in a cell viability assay.

NTERA-2-cl-D1 = type: functional, cell-based, Homo sapiens; details: Homo sapiens, NTERA-2-cl-D1;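 also: inhibition of cell growth, measured with a cell viability assay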
Description: SANGER: Inhibition of human NTERA-S-cl-D1 cell growth in a cell viability assay.

K5 = type: functional, cell-based, Homo sapiens; details: Homo sapiens, K5
Description: SANGER: Inhibition of human K5 cell growth in a cell viability assay.

`CC(=O)O[C@H]1C(=O)[C@@]2(C)[C@H]([C@H](OC(=O)c3ccccc3)[C@]3(O)C[C@H](OC(=O)[C@H](O)[C@@H](NC(=O)c4ccccc4)c4ccccc4)C(C)=C1C3(C)C)[C@]1(OC(C)=O)CO[C@@H]1C[C@@H]2O` [PACLITAXEL] showed an IC50 (RPMI-8866) of 0.0571 µM, an IC50 (DOHH-2) of 0.012 µM and an IC50 (BB49-HNC) greater than 0.102 µM. It also gave an IC50 (KE-37) of 0.0123 µM, an IC50 (COLO-668) greater than 0.102 µM and an IC50 (SK-MEL-1) greater than 0.102 µM. The IC50 (RH-1) was 0.0382 µM, the IC50 (NCI-H1395) was greater than 0.102 µM and the IC50 (ML-2) was 0.0205 µM. The IC50 (ES1) was 0.0129 µM, the IC50 (JVM-2) was greater than 0.102 µM and the IC50 (HH) was 0.0716 µM. The IC50 (D-247MG) was greater than 0.102 µM, the IC50 (DB) was greater than 0.102 µM and the IC50 (NCI-H1355) was 0.00914 µM. The IC50 (KALS-1) was 0.00308 µM, the IC50 (NOMO-1) was 0.0928 µM and the IC50 (COLO-829) was greater than 0.102 µM. It also gave an IC50 (OCUB-M) of 0.00662 µM, an IC50 (TE-12) of 0.0331 µM and an IC50 (J-RT3-T3-5) of 0.0238 µM. The IC50 (COR-L88) was 0.0593 µM, the IC50 (HuTu80) was 0.00168 µM and the IC50 (COLO-684) was 0.0291 µM. For the same compound, the IC50 (KNS-42) was 0.00891 µM, the IC50 (CGTH-W-1) was 0.0545 µM and the IC50 (KURAMOCHI) was 0.00748 µM. For the same compound, the IC50 (K562) was 0.0152 µM, the IC50 (EW-24) was 0.0648 µM and the IC50 (SW 954) was 0.00119 µM. For the same compound, the IC50 (ONS-76) was 0.0204 µM, the IC50 (AM-38) was greater than 0.102 µM and the IC50 (RPMI-8226) was 0.011 µM. For the same compound, the IC50 (TE-10) was 0.00154 µM, the IC50 (NB5) was greater than 0.102 µM and the IC50 (SK-UT-1) was 0.0048 µM. For the same compound, the IC50 (C2BBe1) was greater than 0.102 µM, the IC50 (GI-ME-N) was 0.0845 µM and the IC50 (A101D) was 0.0096 µM. It also gave an IC50 (NCI-H23) greater than 0.102 µM, an IC50 (EM-2) greater than 0.102 µM and an IC50 (LS-123) of 0.0166 µM. It also gave an IC50 (NB17) of 0.0498 µM, an IC50 (TE-9) of 0.00326 µM and an IC50 (MV4-11) of 0.00475 µM. The IC50 (SW684) was greater than 0.102 µM, the IC50 (NTERA-2-cl-D1) was 0.00209 µM and the IC50 (K5) was 0.0723 µM.
`COc1cc(-c2nn([C@H]3CC[C@H](N4CCN(C(C)=O)CC4)CC3)c3ncnc(N)c23)ccc1NC(=O)c1cc2ccccc2n1C` gave an IC50 (RPMI-8866) greater than 5.12 µM, an IC50 (DOHH-2) of 0.0391 µM and an IC50 (BB49-HNC) greater than 5.12 µM. The IC50 (KE-37) was greater than 5.12 µM, the IC50 (COLO-668) was greater than 5.12 µM and the IC50 (SK-MEL-1) was greater than 5.12 µM. The IC50 (RH-1) was greater than 5.12 µM, the IC50 (NCI-H1395) was greater than 5.12 µM and the IC50 (ML-2) was greater than 5.12 µM. The IC50 (ES1) was greater than 5.12 µM, the IC50 (JVM-2) was greater than 5.12 µM and the IC50 (HH) was greater than 5.12 µM. For the same compound, the IC50 (D-247MG) was greater than 5.12 µM, the IC50 (DB) was greater than 5.12 µM and the IC50 (NCI-H1355) was greater than 5.12 µM. For the same compound, the IC50 (KALS-1) was 2.53 µM, the IC50 (NOMO-1) was greater than 5.12 µM and the IC50 (COLO-829) was greater than 5.12 µM. For the same compound, the IC50 (OCUB-M) was 5.03 µM, the IC50 (TE-12) was 0.404 µM and the IC50 (J-RT3-T3-5) was greater than 5.12 µM. The IC50 (COR-L88) was greater than 5.12 µM, the IC50 (HuTu80) was 1.5 µM and the IC50 (COLO-684) was greater than 5.12 µM. It also gave an IC50 (KNS-42) greater than 5.12 µM, an IC50 (CGTH-W-1) greater than 5.12 µM and an IC50 (KURAMOCHI) of 0.896 µM. For the same compound, the IC50 (K562) was 0.392 µM, the IC50 (EW-24) was greater than 5.12 µM and the IC50 (SW 954) was 0.696 µM. For the same compound, the IC50 (ONS-76) was greater than 5.12 µM, the IC50 (AM-38) was greater than 5.12 µM and the IC50 (RPMI-8226) was greater than 5.12 µM. It also gave an IC50 (TE-10) of 2.36 µM, an IC50 (NB5) greater than 5.12 µM and an IC50 (SK-UT-1) greater than 5.12 µM. For the same compound, the IC50 (C2BBe1) was 0.757 µM, the IC50 (GI-ME-N) was 2.29 µM and the IC50 (A101D) was 3.71 µM. For the same compound, the IC50 (NCI-H23) was greater than 5.12 µM, the IC50 (EM-2) was 0.337 µM and the IC50 (LS-123) was greater than 5.12 µM. For the same compound, the IC50 (NB17) was greater than 5.12 µM, the IC50 (TE-9) was greater than 5.12 µM and the IC50 (MV4-11) was greater than 5.12 µM. The IC50 (SW684) was greater than 5.12 µM, the IC50 (NTERA-2-cl-D1) was greater than 5.12 µM and the IC50 (K5) was greater than 5.12 µM.
Work on `CCN(CC)CCNC(=O)c1c(C)[nH]c(/C=C2\C(=O)Nc3ccc(F)cc32)c1C` [SUNITINIB] yielded an IC50 (RPMI-8866) greater than 8 µM, an IC50 (DOHH-2) of 2.33 µM and an IC50 (BB49-HNC) of 3.71 µM. The IC50 (KE-37) was 4.06 µM, the IC50 (COLO-668) was greater than 8 µM and the IC50 (SK-MEL-1) was greater than 8 µM. It also gave an IC50 (RH-1) greater than 8 µM, an IC50 (NCI-H1395) greater than 8 µM and an IC50 (ML-2) of 2.64 µM. It also gave an IC50 (ES1) greater than 8 µM, an IC50 (JVM-2) greater than 8 µM and an IC50 (HH) of 4.21 µM. For the same compound, the IC50 (D-247MG) was greater than 8 µM, the IC50 (DB) was greater than 8 µM and the IC50 (NCI-H1355) was 7.46 µM. It also gave an IC50 (KALS-1) greater than 8 µM, an IC50 (NOMO-1) of 4.34 µM and an IC50 (COLO-829) greater than 8 µM. The IC50 (OCUB-M) was greater than 8 µM, the IC50 (TE-12) was 0.805 µM and the IC50 (J-RT3-T3-5) was 6.08 µM. It also gave an IC50 (COR-L88) greater than 8 µM, an IC50 (HuTu80) greater than 8 µM and an IC50 (COLO-684) greater than 8 µM. For the same compound, the IC50 (KNS-42) was greater than 8 µM, the IC50 (CGTH-W-1) was 0.0309 µM and the IC50 (KURAMOCHI) was greater than 8 µM. The IC50 (K562) was greater than 8 µM, the IC50 (EW-24) was greater than 8 µM and the IC50 (SW 954) was 6.28 µM. The IC50 (ONS-76) was greater than 8 µM, the IC50 (AM-38) was greater than 8 µM and the IC50 (RPMI-8226) was 7.51 µM. For the same compound, the IC50 (TE-10) was 2.34 µM, the IC50 (NB5) was greater than 8 µM and the IC50 (SK-UT-1) was greater than 8 µM. The IC50 (C2BBe1) was greater than 8 µM, the IC50 (GI-ME-N) was greater than 8 µM and the IC50 (A101D) was 2.78 µM. It also gave an IC50 (NCI-H23) greater than 8 µM, an IC50 (EM-2) greater than 8 µM and an IC50 (LS-123) greater than 8 µM. It also gave an IC50 (NB17) greater than 8 µM, an IC50 (TE-9) greater than 8 µM and an IC50 (MV4-11) of less than 0.0312 µM. It also gave an IC50 (SW684) greater than 8 µM, an IC50 (NTERA-2-cl-D1) greater than 8 µM and an IC50 (K5) greater than 8 µM.

Reference: ChEMBL document CHEMBL1201861, “Genomics of Drug Sensitity in Cancer screening data, Wellcome Trust Sanger Institute”
